Measured values taken from patent US12611404B2, “Aza-aryl 1H-pyrazol-1-yl benzene sulfonamides” (ChemoCentryx, Inc., priority 2012, dated 2026).

Molecular target: T1, CCR(9) (Homo sapiens, UniProt P51686)
T1 construct: CCR(9)-expressing cells such as T cell line MOLT-4 cells; host or cells: MOLT-4 cells
T1 sequence (P51686 1-369): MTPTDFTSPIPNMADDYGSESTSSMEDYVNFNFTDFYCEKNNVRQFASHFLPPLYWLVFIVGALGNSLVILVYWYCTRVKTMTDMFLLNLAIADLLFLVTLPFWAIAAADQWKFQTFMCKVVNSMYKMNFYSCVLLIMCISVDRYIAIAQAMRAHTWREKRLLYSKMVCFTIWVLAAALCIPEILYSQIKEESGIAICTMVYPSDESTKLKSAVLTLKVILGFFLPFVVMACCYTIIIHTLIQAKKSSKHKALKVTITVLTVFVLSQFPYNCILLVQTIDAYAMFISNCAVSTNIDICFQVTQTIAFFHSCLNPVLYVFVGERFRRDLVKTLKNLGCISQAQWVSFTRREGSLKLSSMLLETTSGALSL
Assay: serum chemotaxis (migration) assay, MOLT-4 cells in human serum, TECK
Type: cell-based
Conditions: read-out: A2
Method: In vitro cell chemotaxis assays can be performed (but are not limited to this format) using the 96-well microchamber (called ChemoTX™). The ChemoTX™ system is well known to those skilled in the art as a type of chemotactic/cell migration instrument. In this assay, CCR(9)-expressing cells (such as MOLT-4) are first incubated with a compound of interest, such as a possible CCR(9) antagonist at increasing concentrations. Typically, fifty thousand cells per well are used, but the amount can range from 10^3-10^6 cells per well. The chemokine ligand (for example, CCR(9) ligand TECK, typically at 50 nM (but can range from 5-100 nM)), is placed at the lower chamber and the migration apparatus is assembled. Twenty microliters of test compound-treated cells are then placed onto the membrane. Migration is allowed to take place at 37° C. for a period of time, typically 2.5 hours for CCR(9). At the end of the incubation, the number of cells that migrated across the membrane into the lower chamber is then quantified. The efficacy of a compound as an inhibitor of chemokine-mediated cell migration can be calculated as an IC50 (the concentration needed to reduce cell migration by 50%) or IC90 (for 90% inhibition).
MOLT-4 cells were obtained from the American Type Culture Collection (Manassas, VA) and cultured in RPMI tissue culture medium supplemented with 10% fetal calf serum (FCS) in a humidified 5% CO2 incubator at 37° C. Recombinant human chemokine proteins TECK was obtained from R&D Systems (Minneapolis, MN). ChemoTX® chemotaxis microchambers were purchased from Neuro Probe (Gaithersburg, MD). CyQUANT® cell proliferation kits were purchased from Molecular Probes (Eugene, Oregon). Calcium indicator dye Fluo-4 AM was purchased from Molecular Devices (Mountain View, CA).
A serum chemotaxis assay was used to determine the efficacy of potential receptor antagonists at blocking the migration mediated through chemokine receptors, such as CCR(9). This assay was performed using the ChemoTX® microchamber system with a 5-μm pore-sized polycarbonate membrane. MOLT-4 cells were collected by centrifugation at 400×g at room temperature, then suspended at 50 million/ml in human serum, containing 50 mM HEPES (final pH of 7.2). The compound being tested or an equivalent volume of its solvent (DMSO) was then added to the cell/serum mixture at a final DMSO concentration of 0.125% (v/v), and this mixture was then incubated together at 37° C. for one hour. Separately, recombinant human TECK was diluted with chemotaxis buffer (HBSS+0.1% BSA), generally spanning a range from 0.1 nM to 500 nM, after which 29 μl of diluted chemokine was placed in the lower wells of the ChemoTX® plate. The 5-μm (pore size) polycarbonate membrane was placed onto the plate, and 20 μL of the cell/compound mixture was transferred onto each well of the membrane. The plates were incubated at 37° C. for 90 minutes, after which the polycarbonate membranes were removed and 5 μl of the DNA-intercalating agent CyQUANT (Invitrogen, Carlsbad, CA) was added to the lower wells. The amount of fluorescence, corresponding to the number of migrated cells, was measured using a Spectrafluor Plus plate reader (TECAN, San Jose, CA).
The A2 values were calculated from the following equation, comparing the efficacy of the test compound with that of the DMSO-only control at equi-active chemokine levels: Log(A2)=log[drug(M)]−log [(A′/A)−1]
where A reflects the potency of the agonist in the absence of antagonist and A′ reflects the potency of the agonist in the presence of antagonist at a given concentration of drug ([drug(M)]).

Row | Compound | IC50 [nM]
1 | CC(C)(C)c1ccc(S(=O)(=O)Nc2cc(C(F)F)nn2-c2cccc3ncccc23)cc1F | 501 to 2500
2 | CC(C)Oc1ccc(S(=O)(=O)Nc2cc(C(F)(F)F)nn2-c2cccc3cnccc23)cc1 | 501 to 2500
3 | CC(C)(C)c1ccc(S(=O)(=O)Nc2cc(C#N)nn2-c2cccc3ncccc23)cc1 | 501 to 2500
4 | CC(C)(C)c1ccc(S(=O)(=O)Nc2ccnn2-c2cccc3ncccc23)cc1 | > 2500
5 | Cc1cc(NS(=O)(=O)c2cc(F)c(C(C)(C)C)c(F)c2)n(-c2cccc3ncccc23)n1 | < 500
6 | Cc1cc(NS(=O)(=O)c2ccc(C(C)(C)C)c(F)c2)n(-c2cccc3ncccc23)n1 | < 500
7 | CC(C)Oc1ccc(S(=O)(=O)Nc2cc(CF)nn2-c2cccc3ncccc23)cc1 | 501 to 2500
8 | Cc1cc(NS(=O)(=O)c2ccc(C(C)C)cc2)n(-c2cccc3ncccc23)n1 | 501 to 2500
9 | Cc1cc(NS(=O)(=O)c2ccc(OC(C)C)cc2)n(-c2cccc3ncccc23)n1 | 501 to 2500
10 | Cc1cc(NS(=O)(=O)c2ccc(OCC(C)C)cc2)n(-c2cccc3ncccc23)n1 | > 2500
11 | CC(C)(C)c1ccc(S(=O)(=O)Nc2cc(CF)nn2-c2cccc3ncccc23)cc1 | < 500
12 | CC(C)(C)c1ccc(S(=O)(=O)Nc2cc(C(F)(F)F)nn2-c2cccc3ncccc23)cc1 | 501 to 2500
13 | CC(C)Oc1ccc(S(=O)(=O)Nc2cc(C(F)(F)F)nn2-c2cccc3ncccc23)cc1 | > 2500
14 | CC(C)Oc1ccc(S(=O)(=O)Nc2cc(C(F)F)nn2-c2cccc3ncccc23)cc1 | < 500
15 | Cc1cc(NS(=O)(=O)c2ccc(C(C)(C)C)cc2)n(-c2nncc3ccccc23)n1 | 501 to 2500
16 | CC(C)c1ccc(S(=O)(=O)Nc2cc(C(F)(F)F)nn2-c2cccc3cnccc23)cc1 | 501 to 2500
17 | Cc1cc(NS(=O)(=O)c2ccc(C(C)(C)C)c(Cl)c2)n(-c2cccc3ncccc23)n1 | 501 to 2500
18 | Cc1cc(NS(=O)(=O)c2ccc(OC(C)C)cc2)n(-c2cccc3cnccc23)n1 | 501 to 2500
19 | Cc1cc(NS(=O)(=O)c2ccc(C(C)(C)C)cc2)n(-c2n[nH]c(=O)c3ccccc23)n1 | 501 to 2500
20 | CC(C)c1ccc(S(=O)(=O)Nc2cc(C(F)(F)F)nn2-c2cccc3ncccc23)cc1 | 501 to 2500
21 | COc1cnc(-n2nc(C)cc2NS(=O)(=O)c2ccc(C(C)(C)C)cc2)c2ccccc12 | 501 to 2500
22 | Cc1cc(NS(=O)(=O)c2ccc(C(C)C)cc2)n(-c2cccc3cnccc23)n1 | 501 to 2500
23 | Cc1cc(NS(=O)(=O)c2ccc(C(C)(C)C)c(F)c2)n(-c2cccc3nc(N)ccc23)n1 | < 500
24 | Cc1cc(NS(=O)(=O)c2ccc(OC(C)C)c(F)c2)n(-c2cccc3ncccc23)n1 | 501 to 2500
25 | Cc1cc(NS(=O)(=O)c2ccc(OC(F)(F)F)cc2)n(-c2cccc3ncccc23)n1 | 501 to 2500
26 | Cc1cc(NS(=O)(=O)c2ccc(C(C)(C)C)c(F)c2)n(-c2ccc(C#N)c3ncccc23)n1 | < 500
27 | CC(C)c1ccc(S(=O)(=O)Nc2cc(C(F)F)nn2-c2cccc3ncccc23)cc1 | 501 to 2500
28 | Cc1cc(NS(=O)(=O)c2ccc(C(C)(C)C)cc2F)n(-c2cccc3ncccc23)n1 | 501 to 2500
29 | COCc1cc(NS(=O)(=O)c2ccc(C(C)(C)C)cc2)n(-c2cccc3ncccc23)n1 | < 500
30 | CC(C)(C)c1ccc(S(=O)(=O)Nc2cc(CF)nn2-c2cccc3ncccc23)cc1F | < 500

The next lines start with the values.

Row | IC50 [nM] | Compound
31 | < 500 | Cc1ccc2c(-n3nc(C)cc3NS(=O)(=O)c3ccc(C(C)(C)C)cc3)cccc2n1
32 | 501 to 2500 | Cc1cc(NS(=O)(=O)c2ccc(C(C)(C)C)cc2)n(-c2cccc3cnccc23)n1
33 | 501 to 2500 | Cc1cc(NS(=O)(=O)c2ccc(C(C)(C)C)cc2)n(-c2ccnc3cc(F)ccc23)n1
34 | < 500 | Cc1cc(NS(=O)(=O)c2ccc(C(C)(C)C)c(F)c2)n(-c2ccc(Br)c3ncccc23)n1
35 | < 500 | CC(C)(C)c1ccc(S(=O)(=O)Nc2cc(C(F)F)nn2-c2cccc3ncccc23)cc1
36 | > 2500 | Cc1cc(NS(=O)(=O)c2ccc(C(C)(C)C)cc2)n(-c2cccc3c[n+]([O-])ccc23)n1
37 | 501 to 2500 | CCOc1ccc(-n2nc(C)cc2NS(=O)(=O)c2ccc(C(C)(C)C)cc2)c2cccnc12
38 | 501 to 2500 | Cc1cc(NS(=O)(=O)c2ccc(C(C)(C)C)cc2)n(-c2ccc(Br)c3ncccc23)n1
39 | < 500 | Cc1cc(NS(=O)(=O)c2ccc(C(C)(C)C)cc2)n(-c2ccc(Cl)c3ncccc23)n1
40 | 501 to 2500 | Cc1cc(NS(=O)(=O)c2ccc(C(C)(C)C)cc2)n(-c2ccnc3c(F)cccc23)n1
41 | 501 to 2500 | Cc1cc(NS(=O)(=O)c2ccc(C(C)(C)C)cc2)n(-c2cnc(N)c3ccccc23)n1
42 | 501 to 2500 | Cc1cc(-n2nc(C)cc2NS(=O)(=O)c2ccc(C(C)(C)C)cc2)c2cccnc2c1
43 | < 500 | Cc1cc(NS(=O)(=O)c2ccc(C(C)(C)C)cc2)n(-c2ccc(N)c3ncccc23)n1
44 | 501 to 2500 | Cc1cc(NS(=O)(=O)c2ccc(C(C)(C)C)cc2)n(-c2cnnc3ccccc23)n1
45 | 501 to 2500 | Cc1cc(NS(=O)(=O)c2ccc(C(C)(C)C)c(F)c2)n(-c2ccc(N)c3ncccc23)n1
46 | 501 to 2500 | Cc1cc(NS(=O)(=O)c2ccc(C(C)(C)C)cc2)n(-c2nccc3ncccc23)n1

Row | IC50 [nM] | Compound
47 | < 500 | Cc1cc(NS(=O)(=O)c2ccc(C(C)(C)C)cc2)n(-c2cccc3nc(N)ccc23)n1
48 | < 500 | COc1ccc(-n2nc(C)cc2NS(=O)(=O)c2ccc(C(C)(C)C)cc2)c2cccnc12
49 | < 500 | Cc1cc(NS(=O)(=O)c2ccc(C(C)(C)C)cc2)n(-c2cccc3ncccc23)n1
50 | 501 to 2500 | Cc1cc(NS(=O)(=O)c2ccc(C(C)(C)C)cc2)n(-c2ccnc3ccccc23)n1
51 | 501 to 2500 | Cc1cc(NS(=O)(=O)c2ccc(C(C)(C)C)cc2)n(-c2cncc3ccccc23)n1
52 | 501 to 2500 | Cc1cc(NS(=O)(=O)c2ccc(C(C)(C)C)cc2)n(-c2cc(N)nc3ccccc23)n1
53 | 501 to 2500 | Cc1cc(NS(=O)(=O)c2ccc(C(C)(C)C)cc2)n(-c2nccc3ccccc23)n1
54 | 501 to 2500 | Cc1cc(NS(=O)(=O)c2ccc(C(C)(C)C)cc2)n(-c2ccc(C)c3ncccc23)n1
55 | 501 to 2500 | CCC(C)(C)c1ccc(S(=O)(=O)Nc2cc(C)nn2-c2cccc3ncccc23)cc1
56 | 501 to 2500 | Cc1cc(NS(=O)(=O)c2ccc(C(C)(C)C)cc2)n(-c2cccc3c(N)nccc23)n1
57 | < 500 | COc1ccc(-n2nc(C)cc2NS(=O)(=O)c2ccc(C(C)(C)C)c(F)c2)c2cccnc12
58 | > 2500 | Cc1cc(NS(=O)(=O)c2ccc(C(C)(C)C)cc2)n(-c2ncc(Cl)c3ccccc23)n1
59 | 501 to 2500 | Cc1cc(-n2nc(C)cc2NS(=O)(=O)c2ccc(C(C)(C)C)cc2)c2ccccc2n1
60 | 501 to 2500 | Cc1cc(NS(=O)(=O)c2ccc(C(C)(C)C)cc2)n(-c2ccc(C#N)c3ncccc23)n1
61 | 501 to 2500 | Cc1cc(NS(=O)(=O)c2ccc(C(C)(C)C)cc2)n(-c2cccc3c2ccc[n+]3[O-])n1
62 | 501 to 2500 | Cc1cc(NS(=O)(=O)c2ccc(C(C)(C)C)cc2)n(-c2ccc(F)c3ncccc23)n1
